From patent US20140370541A1, “CELL CULTURE LIQUID/GAS-PHASE CHAMBER DEVICES AND RELATED METHODS, AND EXEMPLARY USE FOR MEASURING ACCUMULATION OF GAS-PHASE NITRIC OXIDE IN DIFFERENTIATED CULTURES OF NORMAL AND CYSTIC FIBROSIS AIRWAY EPITHELIAL CELLS” (UNIVERSITY OF NORTH CAROLINA, priority 2012, published 2014)
“And” between values parts separate entries of the source, which are not always exact repeats. Identical values can stand only once. “Also recorded” adds a separate entry of the source.

How the values were obtained:
[1] = test system: control human bronchial epithelial (HBE) cells; experiment: Gas-phase NO (gNO) accumulation above control HBE cultures in gas-tight liquid/gas-phase chamber; assay type: cell-based; settings: for gas-phase level of NO: differentiated HBE, IFN-γ
Procedure: (§1) In preliminary studies, attempts were made to measure gNO release from well-differentiated cultures of HBE cells under the conditions described by Suresh et al. (21). Because some difficulties were encountered in obtaining a reproducible, gas-tight seal, both around the holes drilled in the plastic for the fittings and around the lid of the dish using parafilm, the procedure was modified in the following manner. First, 120 ml Teflon® jars (Savillex) were fitted with silicone O-rings to create a leak-proof seal. Two holes were drilled in the lid and fitted with stainless steel luer-lock adapters that were fastened tightly using stainless steel washers and nuts. The luer-lock adapters were fitted with two 3-way plastic stop-cocks to allow connections to be made to the Sievers 270B NO or other analyzers and room or zero air. Manufactured Teflon partition was inserted into the jar to hold the transwells containing cells and to separate the liquid compartment from the headspace.
(§2) For measurement of gNO production by HBE cultures, ALI media was added to each chamber. The apical surface of each culture was washed with 1 ml of PBS for 5 minutes at 37° C. to remove mucus and cell debris. Unless otherwise specified, 50 μl of PBS was added to the apical surface of the culture to provide a thin layer of ASL and allow cilia to beat freely. Three, 12 mm cultures were placed in each chamber, and the chambers were placed in a 37° C./5% CO2 incubator with the lids removed for 5 minutes to allow equilibration with incubator air. The lids were then replaced and tightened with both stop-cocks fully closed. After the appropriate incubation time, the chambers were removed from the incubator and connected to an NO analyzer. The stop-cocks were simultaneously opened to allow room air into the chamber while sample was being withdrawn into the analyzer for measurement. For these studies, NO was measured using a Sievers 280B nitric oxide analyzer with a flow rate of 40 ml/min. For the measurements of gNO production by nasal cultures the flow rate was increased to 500 ml/min. The analyzer was routinely calibrated using NO free air and nitric oxide standards, and zeroed before each experimental run. The level of NO was determined in room air and was usually <5 ppb. The analog output from the NO analyzer was directed into a MACLAB analog-digital converter and computer for data analyses and archiving. All NO measurements are reported as the peak concentration obtained during the sampling period, usually within the first 15 seconds.
(§3) Ciliated cells first become visible ˜14 days after establishment of an air-liquid interface, and the number of ciliated cells continues to increase with time so that by ˜31 days, the cultures typically consist of a multi-layered, pseudo-stratified, heavily ciliated epithelium, as illustrated in FIG. 1B. FIG. 1B is a micrograph 12 of differentiated cultures 14 consisting of a pseudo-stratified epithelium 16 stained with hematoxylin and eosin with abundant ciliated cells at the apical surface 18. To measure gas-phase NO (gNO) production, the apical surface of the cultures were washed, a small volume of PBS (50 ul) was added to wet the surface, and the cultures were incubated overnight (19-20 hours) in a gas-tight, NO inert, cell culture liquid/gas-phase chamber developed for the measurement of gNO (schematically shown in FIG. 2A).

[2] = test system: iNOS mRNA in cystic fibrosis (CF) HBE cells; experiment: RT-PCR of iNOS mRNA in CF HBE cultures; assay type: cell-based, human; settings: differentiated CF HBE stimulated with IFN-γ, qualitative RT-PCR
HBE cells = experiment: Total nitrate/nitrite (NOx) in basal media; assay type: cell-based, human; settings: cultures treated with IFN-γ
Procedure: Measurements of total nitrite/nitrate in apical and basolateral media samples were performed using the Parameter kit (R&D Systems, Minneapolis, Minn.) according to the manufacturer's instructions. Briefly, a 0.5 ml sample of media was obtained from the basolateral chamber at the conclusion of the experiment and frozen at −20° C. until analyzed. Each sample was assayed in duplicate and compared to a standard curve, which was prepared in the same ALI media used to culture the cells.
Nitric oxide present in biological fluids rapidly reacts with other molecules to produce a variety of products. In aqueous solutions, nitrite and nitrate are two of the major metabolites of NO reaction. To determine if the level of NO products in the basal media increased in a similar manner as the levels of gNO, the total amount of nitrate/nitrite (NOx) in a subset of experiments using the Griese reaction was measured. As expected, the level of nitrate/nitrite in the media was higher in cultures treated with IFN-γ than in untreated cultures, averaging 9.3+/−3.1 μM in treated cultures compared to 2.0+/−0.5 μM in untreated cultures (p=0.005; donors=7, 3). The level of NOx in the media increased proportionally to the level of gNO, with a correlation coefficient of 0.74 (y=2.33x+0.28; R^2=0.74), as shown in the chart 92 in FIG. 9. […]

[3] = test system: CF human bronchial epithelial (HBE) cells; experiment: Gas-phase NO (gNO) accumulation above CF HBE cultures in gas-tight liquid/gas-phase chamber; assay type: cell-based
Procedure: as §1, §2
as §3, with “2A). […]” for “2A).”

[4] = test system: iNOS mRNA in control (Normal) HBE cells; experiment: RT-PCR of NOS isoform RNA in control HBE cultures; assay type: cell-based, human
Procedure: To examine the effect of an inflammatory cytokine on NO production, well-differentiated cultures of normal HBE cells were treated with different concentrations of interferon-gamma (IFN-γ), a potent inducer of iNOS (7-10). Total RNA was isolated and RT-PCR was used to qualitatively assess the level of the NOS isoforms. […] To examine the effect of IFN-γ on gNO, well-differentiated cultures (mean age 128 days) of control HBE cells were treated with interferon-gamma (IFN-γ) overnight. Treatment with 100 ng/ml of IFN-γ increased the level of accumulated NO>50-fold (see FIG. 5), averaging 576+/−200 ppb (n=22; 8 donors). The IFN-γ induced increase in NO was highly significant (p=6.5×10E-6). Increased levels of iNOS RNA and gNO were observed as early as 6 hours after treatment (data not shown), and levels of NO continued to increase for at least 24 hours.

[5] = undifferentiated control HBE cultures, IFN-γ treatment

For `COC(=O)[C@@H](N)CCCNC(=N)N[N+](=O)[O-]` [L-NAME, reference compound], the “inhibition of gNO production” value ([1]; control HBE cells, preliminary experiment FIG. 4A, after IFN-γ treatment) was “inhibited completely”.

With interferon gamma [IFN-γ] the iNOS expression [2] was “increase in iNOS expression”, the “level of nitrate/nitrite in the media” value (HBE cells) was 9.3 ± 3.1 µM and the “level of gNO” value ([3]; differentiated CF HBE cultures, IFN-γ 100 ng/ml, 19-20 hours) was 192 ppb and 192.3+/−68.9 ppb. For the same compound, the “level of gNO” value ([3]; differentiated CF cells stimulated with IFN-γ, submerged with 420 μl PBS) was 11+/−4.3 ppb, the “level of gNO” value ([3]; differentiated CF cells stimulated with IFN-γ, submersion experiments, not submerged) was 98+/−35 ppb and the “ratio of gNO, control cells versus CF cells after IFN-γ treatment” value ([3]; differentiated cultures treated with IFN-γ) was 3 fold. For the same compound, the “level of gNO” value ([3]; undifferentiated CF cells after stimulation with IFN-γ) was 15.6+/−6.8 ppb, the “levels of nNOS and eNOS” value ([4]; control HBE treated with IFN-γ, RT-PCR (not shown)) was “relatively unchanged” and the “level of iNOS RNA / iNOS expression” value ([4]; differentiated control HBE, increasing concentrations of IFN-γ, qualitative RT-PCR) was “induced iNOS expression; also recorded: clear increase”. The “NO concentration” value ([1]; 6 hr incubation with 10 μL INF-γ (100 ng/ml) in HBSS medium, FIG. 4B) was “marked elevation”, the “gas-phase level of NO” value ([1]; 6 hours, 50 μL PBS) was 379+/−210 ppb and the “gas-phase level of NO” value ([1]; 6 hours, submerged with 420 μL PBS) was 6.6+/−5.6 ppb. The “gas-phase level of NO” value ([1]; 20 hours, 50 μL PBS) was 1642.5+/−31 ppb, the “gas-phase level of NO” value ([1]; 20 hours, submerged with 420 μL PBS) was 26.5+/−6.4 ppb and the “fold increase of accumulated gNO over baseline” value ([1]; differentiated control HBE cultures, 100 ng/ml IFN-γ) was > 50 fold and ~50 fold. For the same compound, the “level of accumulated gNO” value ([1]; differentiated control HBE cultures, 100 ng/ml IFN-γ overnight (19-20 hours), 50 μl PBS apical) was 576 ppb and 576+/−200 ppb and > 500 ppb, the “fold increase in gNO” value [1, 5] was roughly 2 fold and the “level of gNO” value [1, 5] was 9.5+/−3.3 ppb and ~10 ppb. The “effect on gNO” value ([1]; undifferentiated cultures, IFN-γ treatment) was “no significant effect”.
